Laboratory results as given in patent US20120184035A1, “Methods and Compositions For Reprogramming Cells” (priority 2011, published 2012).
Entries after “also recorded” stand apart in the source; their conditions may differ.

Tested on: 293T cells
Experiment: RT-PCR of muscle specific gene expression in permeabilized 293T cells incubated with cell extracts, with or without transcription modifying agents or conditioned media
Format: cell-based, human
Source text: A hallmark of a particular cell type is its gene expression profile. Reverse-Transcription of the expressed RNA in a cell, combined with Polymerase Chain Reaction aided amplification of the signal (RT-PCR), was used to detect the expression levels of these genes and provide a method to detect cell reprogramming. This example illustrates RT-PCR assays for detection of muscle specific genes in C2C12 cells (FIG. 5). Total RNA prepared from C2C12 cells at different stages of differentiation (t=0, t=3, t=6) or from 293T cells or HeLa cells were used in an RT-PCR reaction with primers specific to the muscle specific genes, MyoD or Myogenin. […] RT-PCR conditions for the detection of late muscle specific genes Troponin T and Myosin Heavy Chain, and for the hES cell marker Oct-4, were also established. Due to its relatively high sensitivity, gene expression analysis using RT-PCR was used to detect expression of marker genes in permeablized and potentially reprogrammed recipient cells.
Cell extracts were introduced into a recipient cell by reversible permeabilization of recipient cells using the pore-forming, calcium sensitive bacterial toxin Streptolysin O (SLO) and exposure of these cells to reprogramming cell extracts. Limited and transient exposure of cells to low doses of SLO in the absence of calcium ions allows the formation of membrane pores large enough to allow the passive diffusion of proteins up to the size of 100 kilodaltons, but not large enough for organelles. Subsequently, reversal of this membrane permeabilization by adding calcium ions allows the membrane to repair itself and the resealed cells are viable and can proliferate. During the permeabilization process, the recipient cell was incubated with whole cell extracts or nuclear or cytoplasmic extracts of a desired cell type (“donor cell”), and (in some experiments) in the presence of permeabilization/reprogramming promoting agents such as an energy generating system and cytoskeletal disruptors. The whole cell extract is believed to provide regulatory factors that are taken up by the permeabilizing recipient cell. The plasma membrane was then resealed, the cells were allowed to recover and cultured further, in conditions conducive to desired reprogramming. […] The resultant changes in gene expression profiles may arise over time, and may be further promoted by subsequent rounds of treatment with donor cell extract.
Cells were treated with reprogramming extracts (or control 293T “self” extracts) as above.
We next turned to testing the effects of these treatments on reprogramming potential by evaluating reprogramming of 293T or primary NHDF-N cells incubated with cell extracts from the C2C12 muscle differentiating system by gene expression analysis (RT-PCR). In the case of examining the effects of transcription modifying agents, several variations of treatment plans were envisioned. The agents can be applied before or after permeabilizing the cells (or both) and for different durations of time, as long as the cells survive the treatment. Plausibly, different treatment designs could potentially lead to different effects.

[1] = agents applied after priming/permeabilization of C2C12 extract exposed 293T cells, 5-aza 10 uM, SB 10 mM, TSA 10 nM
[2] = agents for 48 hours before permeabilization, 293T self extract

## Nc1ncn([C@@H]2O[C@H](CO)[C@@H](O)[C@H]2O)c(=O)n1 [5-azacytidine]
Agent applied post priming, 293T self extract
  MyoD expression in cells primed with control self extract: low level of expression of MyoD
[1]
  level of MyoD RNA detection: did not appear to enhance the level of MyoD expression
[2]
  MyoD expression in cells incubated with control self extract: low level of expression of MyoD
Agents for 48 hours before permeabilization, C2C12 extract incubated 293T cells, relative to C2C12 extract alone
  level of MyoD RNA detection: appeared to enhance the level detection of this RNA; also recorded: enhance the level detection of this RNA slightly
Later timepoints, modifier treated and C2C12 extract incubated 293T cells
  Troponin T transcript at later timepoints: more abundant and more specific

## CCCC(=O)[O-].[Na+] [Sodium Butyrate]
[1]
  level of MyoD RNA detection: small increase in expression
Agents applied after priming/permeabilization of C2C12 extract exposed 293T cells, 5-aza 10 uM, SB 10 mM, TSA 10 nM, listed as SB
  level of MyoD RNA detection: did not appear to enhance the level of MyoD expression
[2]
  MyoD expression in cells incubated with control self extract: low level of expression of MyoD
Agents for 48 hours before permeabilization, C2C12 extract incubated 293T cells, relative to C2C12 extract alone, listed as SB
  level of MyoD RNA detection: appeared to enhance the level detection of this RNA; also recorded: enhance the level detection of this RNA slightly

## CC(/C=C/C(=O)NO)=C\[C@@H](C)C(=O)c1ccc(N(C)C)cc1 [Trichostatin A]
[1]
  level of MyoD RNA detection: did not appear to enhance the level of MyoD expression
Agents for 48 hours before permeabilization, C2C12 extract incubated 293T cells, relative to C2C12 extract alone, listed as TSA
  level of MyoD RNA detection: appeared to enhance the level detection of this RNA; also recorded: enhance the level detection of this RNA slightly
